Measurements reported in the supplement of paper PMC10307832.

Assays:
Test in all cases: relative viability (nuclei count vs DMSO), 5 days (fraction); higher = more cells survive
A-427 = system: A-427
How it was run: (§1)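 Nuclei were stained with Hoechst during a one-step fixation (final 0.05% Triton X-100, 1% formaldehyde, 1 ug/ml Hoechst) carried out 5 days after dosing, then counted on 4× images. The cells, lung cancer lines in 1536-well plates, had been dosed by pin tool the day after seeding with one drug alone or a fixed anchor-drug dose plus five library-drug doses (not always all listed) in √10 steps. Relative viability is the nuclei count in treated wells divided by that in vehicle wells, and each value is the median of duplicate plates.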

ABC-1 = system: ABC-1
How it was run: as §1

COR-L23 = system: COR-L23
How it was run: as §1

EMC-BAC-2 = system: EMC-BAC-2
How it was run: as §1

HARA = system: HARA
How it was run: as §1

HOP-62 = system: HOP-62
How it was run: as §1

LK-2 = system: LK-2
How it was run: as §1

LXF-289 = system: LXF-289
How it was run: as §1

NCI-H1792 = system: NCI-H1792
How it was run: as §1

NCI-H1793 = system: NCI-H1793
How it was run: as §1

NCI-H1944 = system: NCI-H1944
How it was run: as §1

NCI-H1993 = system: NCI-H1993
How it was run: as §1

NCI-H2009 = system: NCI-H2009
How it was run: as §1

NCI-H2170 = system: NCI-H2170
How it was run: as §1

NCI-H2228 = system: NCI-H2228
How it was run: as §1

NCI-H3122 = system: NCI-H3122
How it was run: as §1

NCI-H596 = system: NCI-H596
How it was run: as §1

NCI-H727 = system: NCI-H727
How it was run: as §1

PC-3 [JPC-3] = system: PC-3 [JPC-3]
How it was run: as §1

SK-LU-1 = system: SK-LU-1
How it was run: as §1

SK-MES-1 = system: SK-MES-1
How it was run: as §1

SW 1573 = system: SW 1573
How it was run: as §1

SW 900 = system: SW 900
How it was run: as §1

## Oc1nc(-c2ccc(C(F)(F)F)cc2)nc2c1CSCC2 [XAV939] + N=C(N)NC(=N)NCCc1ccccc1 [Phenformin] (partner 250 µM)
A-427; first compound 0.08 µM
  relative viability: 0.365
A-427; first compound 0.253 µM
  relative viability: 0.328
A-427; first compound 0.8 µM
  relative viability: 0.314
A-427; first compound 2.53 µM
  relative viability: 0.294
ABC-1; first compound 0.08 µM
  relative viability: 0.212
ABC-1; first compound 0.253 µM
  relative viability: 0.272
ABC-1; first compound 0.8 µM
  relative viability: 0.256
ABC-1; first compound 2.53 µM
  relative viability: 0.233
COR-L23; first compound 0.08 µM
  relative viability: 0.438
COR-L23; first compound 0.253 µM
  relative viability: 0.44
COR-L23; first compound 0.8 µM
  relative viability: 0.466
COR-L23; first compound 2.53 µM
  relative viability: 0.405
EMC-BAC-2; first compound 0.08 µM
  relative viability: 0.551
EMC-BAC-2; first compound 0.253 µM
  relative viability: 0.459
EMC-BAC-2; first compound 0.8 µM
  relative viability: 0.424
EMC-BAC-2; first compound 2.53 µM
  relative viability: 0.288
HARA; first compound 0.08 µM
  relative viability: 0.425
HARA; first compound 0.253 µM
  relative viability: 0.448
HARA; first compound 0.8 µM
  relative viability: 0.452
HARA; first compound 2.53 µM
  relative viability: 0.432
HOP-62; first compound 0.08 µM
  relative viability: 0.8
HOP-62; first compound 0.253 µM
  relative viability: 0.623
HOP-62; first compound 0.8 µM
  relative viability: 0.646
HOP-62; first compound 2.53 µM
  relative viability: 0.593
LK-2; first compound 0.08 µM
  relative viability: 0.458
LK-2; first compound 0.253 µM
  relative viability: 0.527
LK-2; first compound 0.8 µM
  relative viability: 0.484
LK-2; first compound 2.53 µM
  relative viability: 0.369
LXF-289; first compound 0.08 µM
  relative viability: 0.556
LXF-289; first compound 0.253 µM
  relative viability: 0.48
LXF-289; first compound 0.8 µM
  relative viability: 0.539
LXF-289; first compound 2.53 µM
  relative viability: 0.546
NCI-H1792; first compound 0.08 µM
  relative viability: 0.432
NCI-H1792; first compound 0.253 µM
  relative viability: 0.308
NCI-H1792; first compound 0.8 µM
  relative viability: 0.303
NCI-H1792; first compound 2.53 µM
  relative viability: 0.331
NCI-H1793; first compound 0.08 µM
  relative viability: 0.495
NCI-H1793; first compound 0.253 µM
  relative viability: 0.389
NCI-H1793; first compound 0.8 µM
  relative viability: 0.302
NCI-H1793; first compound 2.53 µM
  relative viability: 0.354
NCI-H1944; first compound 0.08 µM
  relative viability: 0.233
NCI-H1944; first compound 0.253 µM
  relative viability: 0.198
NCI-H1944; first compound 0.8 µM
  relative viability: 0.199
NCI-H1944; first compound 2.53 µM
  relative viability: 0.17
NCI-H1993; first compound 0.08 µM
  relative viability: 0.479
NCI-H1993; first compound 0.253 µM
  relative viability: 0.526
NCI-H1993; first compound 0.8 µM
  relative viability: 0.524
NCI-H1993; first compound 2.53 µM
  relative viability: 0.511
NCI-H2009; first compound 0.08 µM
  relative viability: 0.524
NCI-H2009; first compound 0.253 µM
  relative viability: 0.484
NCI-H2009; first compound 0.8 µM
  relative viability: 0.421
NCI-H2009; first compound 2.53 µM
  relative viability: 0.441
NCI-H2170; first compound 0.08 µM
  relative viability: 0.393
NCI-H2170; first compound 0.253 µM
  relative viability: 0.394
NCI-H2170; first compound 0.8 µM
  relative viability: 0.413
NCI-H2170; first compound 2.53 µM
  relative viability: 0.362
NCI-H2228; first compound 0.08 µM
  relative viability: 0.3
NCI-H2228; first compound 0.253 µM
  relative viability: 0.328
NCI-H2228; first compound 0.8 µM
  relative viability: 0.296
NCI-H2228; first compound 2.53 µM
  relative viability: 0.252
NCI-H3122; first compound 0.08 µM
  relative viability: 0.38
NCI-H3122; first compound 0.253 µM
  relative viability: 0.336
NCI-H3122; first compound 0.8 µM
  relative viability: 0.338
NCI-H3122; first compound 2.53 µM
  relative viability: 0.39
NCI-H596; first compound 0.08 µM
  relative viability: 0.699
NCI-H596; first compound 0.253 µM
  relative viability: 0.673
NCI-H596; first compound 0.8 µM
  relative viability: 0.764
NCI-H596; first compound 2.53 µM
  relative viability: 0.774
NCI-H727; first compound 0.08 µM
  relative viability: 0.732
NCI-H727; first compound 0.253 µM
  relative viability: 0.353
NCI-H727; first compound 0.8 µM
  relative viability: 0.635
NCI-H727; first compound 2.53 µM
  relative viability: 0.542
PC-3 [JPC-3]; first compound 0.08 µM
  relative viability: 0.441
PC-3 [JPC-3]; first compound 0.253 µM
  relative viability: 0.466
PC-3 [JPC-3]; first compound 0.8 µM
  relative viability: 0.474
PC-3 [JPC-3]; first compound 2.53 µM
  relative viability: 0.441
SK-LU-1; first compound 0.08 µM
  relative viability: 0.548
SK-LU-1; first compound 0.253 µM
  relative viability: 0.513
SK-LU-1; first compound 0.8 µM
  relative viability: 0.447
SK-LU-1; first compound 2.53 µM
  relative viability: 0.556
SK-MES-1; first compound 0.08 µM
  relative viability: 0.759
SK-MES-1; first compound 0.253 µM
  relative viability: 0.643
SK-MES-1; first compound 0.8 µM
  relative viability: 0.613
SK-MES-1; first compound 2.53 µM
  relative viability: 0.631
SW 1573; first compound 0.08 µM
  relative viability: 0.483
SW 1573; first compound 0.253 µM
  relative viability: 0.398
SW 1573; first compound 0.8 µM
  relative viability: 0.369
SW 1573; first compound 2.53 µM
  relative viability: 0.37
SW 900; first compound 0.08 µM
  relative viability: 0.657
SW 900; first compound 0.253 µM
  relative viability: 0.49
SW 900; first compound 0.8 µM
  relative viability: 0.537
SW 900; first compound 2.53 µM
  relative viability: 0.419
